# Measurements as given in patent US11000033B2, “Ketone or oxime compound, and herbicide” (NISSAN CHEMICAL CORPORATION, priority 2014, dated 2021).
# How the values were obtained:
# Type in all cases: in vivo
# Digitaria ciliaris = assay: Test Example 5: herbicidal effect by foliage application, plastic box (symbol F); settings: 320 g/ha, 3 weeks after application
# Outline: (§1)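 Sowing in sterilized diluvial soil, 14 days' greenhouse growth at 25° C. to 30° C., then uniform small-sprayer foliar application of aqueous emulsion dilution; plants scored three weeks afterwards.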
# beet = assay: Test Example 4: effect on crop by soil treatment (symbol f); settings: application herbicide amount 320 g/ha
# Outline: (§2)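 The test used sterilized diluvial soil. Seed was set down in spots and overlaid with about 1.5 cm of soil before growth in a greenhouse kept at 25° C. to 30° C.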
# Amaranthus retroflexus = assay: Test Example 4: herbicidal effect by soil treatment (symbol N); settings: application herbicide amount 320 g/ha
# Outline: (§3)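 Seeds were sown in sterilized diluvial soil, covered with about 1.5 cm of soil, and the soil surface was sprayed with a water-diluted emulsion of the compound at a predetermined rate. Plants grew in a greenhouse at 25° C. to 30° C.; effects were scored visually 3 weeks after application.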
# Setaria viridis = assay: Test Example 5: herbicidal effect by foliage application, plastic box (symbol G); settings: 320 g/ha, 3 weeks after application
# Outline: as §1
# Avena fatua = assay: Test Example 5: herbicidal effect by foliage application, plastic box (symbol I); settings: 320 g/ha, 3 weeks after application
# Outline: as §1
# rice = assay: Test Example 4: effect on crop by soil treatment (symbol b); settings: application herbicide amount 320 g/ha
# Outline: as §2
# Monochoria vaginalis = assay: Test Example 2: herbicidal activity, application during weed generation in submerged conditions (symbol C); settings: Table 23; application herbicide amount 320 g/ha; grade 0-5 by criteria of Test Example 1
# Outline: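 Weeds emerging under flooded conditions were treated with compound formulated as an emulsion and diluted with water to the intended herbicide amount, poured onto the surface of 4 cm standing water. Seeds had been co-sown in alluvial soil; plants grew at 25° C. to 30° C. and were assessed after 3 weeks.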
# Abutilon theophrasti = assay: Test Example 5: herbicidal effect by foliage application, plastic box (symbol M); settings: 320 g/ha, 3 weeks after application
# Outline: as §1
# Galium spurium = assay: Test Example 4: herbicidal effect by soil treatment (symbol Q); settings: application herbicide amount 320 g/ha
# Outline: as §3
# [1] = system: Echinochloa crus-galli var. crus-galli; assay: Test Example 4: herbicidal effect by soil treatment (symbol H); settings: application herbicide amount 320 g/ha
# Outline: as §3
# Stellaria media [2] = assay: Test Example 4: herbicidal effect by soil treatment (symbol P); settings: application herbicide amount 320 g/ha
# Outline: as §3
# Stellaria media [3] = assay: Test Example 5: herbicidal effect by foliage application, plastic box (symbol P); settings: 320 g/ha, 3 weeks after application
# Outline: as §1
# rice plant = assay: Test Example 5: effect on crop by foliage application, plastic box (symbol b); settings: 320 g/ha, 3 weeks after application
# Outline: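 Crop seed is sown alongside grass and broadleaf weed species in spots in sterilized diluvial soil, then covered to a depth of about 1.5 cm. Plants grow in a greenhouse kept at 25° C. to 30° C.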
# transplanted rice plant = assay: Test Example 1: effect on crop, application before weed generation in submerged conditions (symbol a); settings: application herbicide amount 320 g/ha
# Outline: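 Alluvial soil pots flooded to 4 cm water, sown with Echinochloa oryzacola, Scirpus juncoides and Monochoria vaginalis, then transplanted with 2.5 leaf stage rice seedlings; pre-emergence application. Greenhouse 25° C. to 30° C.; scored 0–5 by herbicidal ratio 3 weeks after application.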
compound,measurement,setting,value
COc1cc(Br)cc(C)c1C1=C(O)CC(CC(=O)C2CC2)C1=O (racemic) [14-001],"F: Digitaria ciliaris, herbicidal effect grade",Digitaria ciliaris,5 (Herbicidal ratio of 90% or more (almost completely withered))
same,"f: beet, effect on crop grade",beet,0 (Herbicidal ratio of 5% or lower (almost no effect))
same,"N: Amaranthus retroflexus, herbicidal effect grade",Amaranthus retroflexus,0 (Herbicidal ratio of 5% or lower (almost no effect))
same,"G: Setaria viridis, herbicidal effect grade",Setaria viridis,5 (Herbicidal ratio of 90% or more (almost completely withered))
same,"I: Avena fatua, herbicidal effect grade",Avena fatua,5 (Herbicidal ratio of 90% or more (almost completely withered))
same,"b: directly sowed rice plant, effect on crop grade",rice,5 (Herbicidal ratio of 90% or more (almost completely withered))
same,"Herbicidal effect grade, C: Monochoria vaginalis",Monochoria vaginalis,1 (Herbicidal ratio of 5% or higher and lower than 20%)
same,"M: Abutilon theophrasti, herbicidal effect grade",Abutilon theophrasti,4 (Herbicidal ratio of 70% or higher and lower than 90%)
same,"Q: Galium spurium, herbicidal effect grade",Galium spurium,0 (Herbicidal ratio of 5% or lower (almost no effect))
same,"H: Echinochloa crus-galli var. crus-galli, herbicidal effect grade",[1],5 (Herbicidal ratio of 90% or more (almost completely withered))
same,"P: Stellaria media, herbicidal effect grade",Stellaria media [2],0 (Herbicidal ratio of 5% or lower (almost no effect))
same,"P: Stellaria media, herbicidal effect grade",Stellaria media [3],0 (Herbicidal ratio of 5% or lower (almost no effect))
same,"b: directly sowed rice plant, effect on crop grade",rice plant,5 (Herbicidal ratio of 90% or more (almost completely withered))
same,a (transplanted rice plant) effect on crop grade,transplanted rice plant,5 (Herbicidal ratio of 90% or more (almost completely withered))
CC(CC1CC(O)=C(c2c(C)cc(-c3ccc(Cl)cc3)cc2C)C1=O)=NOCC(F)(F)F (stereo not shown) [9-024],"F: Digitaria ciliaris, herbicidal effect grade",Digitaria ciliaris,5 (Herbicidal ratio of 90% or more (almost completely withered))
same,"Effect on crop grade, f: beet",beet,0 (Herbicidal ratio of 5% or lower (almost no effect))
same,"Herbicidal effect grade, N: Amaranthus retroflexus",Amaranthus retroflexus,3 (Herbicidal ratio of 40% or higher and lower than 70%)
same,"G: Setaria viridis, herbicidal effect grade",Setaria viridis,5 (Herbicidal ratio of 90% or more (almost completely withered))
same,"I: Avena fatua, herbicidal effect grade",Avena fatua,5 (Herbicidal ratio of 90% or more (almost completely withered))
same,"Effect on crop grade, b: directly sowed rice plant",rice,5 (Herbicidal ratio of 90% or more (almost completely withered))
same,"Herbicidal effect grade, C: Monochoria vaginalis",Monochoria vaginalis,1 (Herbicidal ratio of 5% or higher and lower than 20%)
same,"M: Abutilon theophrasti, herbicidal effect grade",Abutilon theophrasti,3 (Herbicidal ratio of 40% or higher and lower than 70%)
same,"Herbicidal effect grade, Q: Galium spurium",Galium spurium,0 (Herbicidal ratio of 5% or lower (almost no effect))
same,"Herbicidal effect grade, H: Echinochloa crus-galli var. crus-galli",[1],5 (Herbicidal ratio of 90% or more (almost completely withered))
same,"Herbicidal effect grade, P: Stellaria media",Stellaria media [2],4 (Herbicidal ratio of 70% or higher and lower than 90%)
same,"P: Stellaria media, herbicidal effect grade",Stellaria media [3],4 (Herbicidal ratio of 70% or higher and lower than 90%)
same,"b: directly sowed rice plant, effect on crop grade",rice plant,5 (Herbicidal ratio of 90% or more (almost completely withered))
same,a (transplanted rice plant) effect on crop grade,transplanted rice plant,5 (Herbicidal ratio of 90% or more (almost completely withered))
CON=C(C)CC1(C)CC(O)=C(c2c(C)cc(C)cc2C)C1=O (mixture of isomers) [11-002],"F: Digitaria ciliaris, herbicidal effect grade",Digitaria ciliaris,4 (Herbicidal ratio of 70% or higher and lower than 90%)
same,"Effect on crop grade, f: beet",beet,0 (Herbicidal ratio of 5% or lower (almost no effect))
same,"Herbicidal effect grade, N: Amaranthus retroflexus",Amaranthus retroflexus,0 (Herbicidal ratio of 5% or lower (almost no effect))
same,"G: Setaria viridis, herbicidal effect grade",Setaria viridis,4 (Herbicidal ratio of 70% or higher and lower than 90%)
same,"I: Avena fatua, herbicidal effect grade",Avena fatua,5 (Herbicidal ratio of 90% or more (almost completely withered))
same,"Effect on crop grade, b: directly sowed rice plant",rice,4 (Herbicidal ratio of 70% or higher and lower than 90%)
same,"Herbicidal effect grade, C: Monochoria vaginalis",Monochoria vaginalis,0 (Herbicidal ratio of 5% or lower (almost no effect))
same,"M: Abutilon theophrasti, herbicidal effect grade",Abutilon theophrasti,0 (Herbicidal ratio of 5% or lower (almost no effect))
same,"Herbicidal effect grade, Q: Galium spurium",Galium spurium,0 (Herbicidal ratio of 5% or lower (almost no effect))
same,"Herbicidal effect grade, H: Echinochloa crus-galli var. crus-galli",[1],3 (Herbicidal ratio of 40% or higher and lower than 70%)
same,"Herbicidal effect grade, P: Stellaria media",Stellaria media [2],0 (Herbicidal ratio of 5% or lower (almost no effect))
same,"P: Stellaria media, herbicidal effect grade",Stellaria media [3],0 (Herbicidal ratio of 5% or lower (almost no effect))
same,"b: directly sowed rice plant, effect on crop grade",rice plant,5 (Herbicidal ratio of 90% or more (almost completely withered))
same,a (transplanted rice plant) effect on crop grade,transplanted rice plant,2 (Herbicidal ratio of 20% or higher and lower than 40%)
CCC(CC1CC(O)=C(c2c(C)cc(C)cc2OC)C1=O)=NOC (mixture of isomers) [13-003],"F: Digitaria ciliaris, herbicidal effect grade",Digitaria ciliaris,5 (Herbicidal ratio of 90% or more (almost completely withered))
same,"f: beet, effect on crop grade",beet,0 (Herbicidal ratio of 5% or lower (almost no effect))
same,"N: Amaranthus retroflexus, herbicidal effect grade",Amaranthus retroflexus,0 (Herbicidal ratio of 5% or lower (almost no effect))
same,"G: Setaria viridis, herbicidal effect grade",Setaria viridis,5 (Herbicidal ratio of 90% or more (almost completely withered))
same,"I: Avena fatua, herbicidal effect grade",Avena fatua,5 (Herbicidal ratio of 90% or more (almost completely withered))
same,"b: directly sowed rice plant, effect on crop grade",rice,5 (Herbicidal ratio of 90% or more (almost completely withered))
same,"Herbicidal effect grade, C: Monochoria vaginalis",Monochoria vaginalis,3 (Herbicidal ratio of 40% or higher and lower than 70%)
same,"M: Abutilon theophrasti, herbicidal effect grade",Abutilon theophrasti,4 (Herbicidal ratio of 70% or higher and lower than 90%)
same,"Q: Galium spurium, herbicidal effect grade",Galium spurium,0 (Herbicidal ratio of 5% or lower (almost no effect))
same,"H: Echinochloa crus-galli var. crus-galli, herbicidal effect grade",[1],5 (Herbicidal ratio of 90% or more (almost completely withered))
same,"P: Stellaria media, herbicidal effect grade",Stellaria media [2],0 (Herbicidal ratio of 5% or lower (almost no effect))
same,"P: Stellaria media, herbicidal effect grade",Stellaria media [3],1 (Herbicidal ratio of 5% or higher and lower than 20%)
same,"b: directly sowed rice plant, effect on crop grade",rice plant,5 (Herbicidal ratio of 90% or more (almost completely withered))
same,a (transplanted rice plant) effect on crop grade,transplanted rice plant,5 (Herbicidal ratio of 90% or more (almost completely withered))
Cc1cc(Br)cc(C)c1C1=C(O)CC(CC(=O)C(C)C)C1=O (racemic) [10-003],"F: Digitaria ciliaris, herbicidal effect grade",Digitaria ciliaris,3 (Herbicidal ratio of 40% or higher and lower than 70%)
same,"Effect on crop grade, f: beet",beet,0 (Herbicidal ratio of 5% or lower (almost no effect))
same,"Herbicidal effect grade, N: Amaranthus retroflexus",Amaranthus retroflexus,0 (Herbicidal ratio of 5% or lower (almost no effect))
same,"G: Setaria viridis, herbicidal effect grade",Setaria viridis,5 (Herbicidal ratio of 90% or more (almost completely withered))
same,"I: Avena fatua, herbicidal effect grade",Avena fatua,3 (Herbicidal ratio of 40% or higher and lower than 70%)
same,"Effect on crop grade, b: directly sowed rice plant",rice,4 (Herbicidal ratio of 70% or higher and lower than 90%)
same,"Herbicidal effect grade, C: Monochoria vaginalis",Monochoria vaginalis,0 (Herbicidal ratio of 5% or lower (almost no effect))
same,"M: Abutilon theophrasti, herbicidal effect grade",Abutilon theophrasti,0 (Herbicidal ratio of 5% or lower (almost no effect))
same,"Herbicidal effect grade, Q: Galium spurium",Galium spurium,0 (Herbicidal ratio of 5% or lower (almost no effect))
same,"Herbicidal effect grade, H: Echinochloa crus-galli var. crus-galli",[1],5 (Herbicidal ratio of 90% or more (almost completely withered))
same,"Herbicidal effect grade, P: Stellaria media",Stellaria media [2],0 (Herbicidal ratio of 5% or lower (almost no effect))
same,"P: Stellaria media, herbicidal effect grade",Stellaria media [3],0 (Herbicidal ratio of 5% or lower (almost no effect))
same,"b: directly sowed rice plant, effect on crop grade",rice plant,4 (Herbicidal ratio of 70% or higher and lower than 90%)
same,a (transplanted rice plant) effect on crop grade,transplanted rice plant,3 (Herbicidal ratio of 40% or higher and lower than 70%)
